# Laboratory results as given in patent US20100022637A1, “IDENTIFICATION OF ANTI-CANCER COMPOUNDS AND COMPOUNDS FOR TREATING HUNTINGTON'S DISEASE AND METHODS OF TREATMENT THEREOF” (THE TRUSTEES OF COLUMBIA UNIVERSITY IN THE CITY OF NEW YORK, priority 2005, published 2010).
# pEC50: −log10 of the molar value.
# How the values were obtained:
# p53 = assay: Western blot of p53 (p21, MDM2) levels; type: cell-based, human; conditions: RKO-E6 cells; in words
# Description: Protein content was quantified using a BioRad protein assay reagent (BioRad, cat #500-0006). Equal amounts of protein were resolved on SDS-polyacrylamide gels. Proteins were transferred onto a PVDF membrane, blocked with 5% milk, and incubated with the appropriate primary and secondary antibodies. […] To test for equivalent loading in each lane, blots were stripped, blocked and probed with an anti-eIF-4E antibody.
# RKO-E6 cells [1] = assay: Flow cytometry cell cycle distribution, RKO-E6; type: cell-based, human; conditions: 24 h, propidium iodide
# Description: RKO, RKO-E6 or HeLa cells were seeded in 20-cm dishes in 10 ml of growth medium. Cells were allowed to adhere and then treated with the selected compounds for 24 h. The treated cells were collected, washed 2× with PBS and counted. The cell pellet was re-suspended in 500 μl of ice cold PBS and 2-5 ml of cold 70% ethanol (−20° C.) were added. Cells were fixed for 1 h or overnight. 5-10 million cells were placed into a 15-ml conical tube and centrifuged at 1000 g. Cells were washed 2× with 1% calf serum in PBS. Cells were resuspended in 800 μl of 1% calf serum in PBS and 100 μl of Rnase (1 mg/ml) and 100 μl of propidium iodide (400 μg/ml) added. Cells were incubated at 37° C. for 30 min and then analyzed on flow cytometer.
# RKO-E6 cells [2] = assay: Alamar Blue viability assay, RKO-E6; type: cell-based, human
# Description: RKO colon carcinoma, human (ATCC, order # CRL-2577), RKO-E6 colon carcinoma transfected with HPV E6 inserted in pCMV.3 (ATCC, order # CRL-2578) were grown in MEM with 2 mM L-glutamine and Earle's BBS adjusted to contain 1.5 g/L NaHCO3, 0.1 mM non-essential amino acids and 1.0 mM sodium pyruvate, and supplemented with 10% fetal bovine serum, penicillin and streptomycin (pen/strep). Both cell lines were incubated at 37° C. in a humidified incubator containing 5% CO2.
# The Alamar Blue assay incorporates a fluorimetric/colorimetric growth indicator that changes color in the response to chemical reduction by viable cells (Nociari 1998). Cells were seeded at a density of 3,000 cells (57 μl) per well in a 384-well black, clear-bottom plates using a syringe bulk dispenser (Zymark Sciclone ALH). Three microliters were removed from a compound daughter plate using a 384 fixed cannula head and added to the assay plate, making the final concentration 4 μg/ml. The plates were incubated for 24 h at 37° C. 10 μl of 40% Alamar Blue (Biosource Int., cat #DAL1100) solution in media was added to each well (1:10 dilution). The assay plates were incubated for 16h. Fluorescence intensity was determined using a Packard Fusion platereader with a 535 nm excitation filter and a 590 nm emission filter. The average fluorescence for the whole plate was used as a positive control. Average percentage inhibition for each well was determined using our freely available SLIMS software (Kelley et al., 2004).
# The daughter plates for the 2-fold dilution series were prepared with a Zymark Sciclone ALH by diluting the replica daughter plates to obtain compound concentrations from 8 μg/ml-0.008 μg/ml (columns 8-18). Columns 1-7 were used as untreated control. RKO-E6 cells were seeded at the density of 3,000 per well in 55 μl, and 5 μl were added from the daughter plate. RKO cells were seeded at the density of 2,000 per well in 55 μl, and 5 μl were added from the daughter plate. The assay was incubated for 24 h at 37° C. 10% Alamar Blue was added to each well and the assay was incubated for 16 h (see above). Compounds for retesting were purchased from the manufacturers or from Sigma-Aldrich (see above). Stocks were prepared in DMSO at 4 mg/ml.
# Each cell line (RKO, RKO-E6, HeLa and TC32) was treated with a dose combination matrix of doxorubicin and a selected hit compound. Each treatment was done in a triplicate in 384-well format. The average percent inhibition of cell proliferation, measured with Alamar Blue, was determined using the following formula: […]
# [3] = test system: ASH neurons in C. elegans HD model (pqe-1; Htn-Q150); assay: Neuronal survival assay, worm HD model; type: in vivo; conditions: 2 d after treatment, revertin-2 0.8 mg/ml, revertin-1a 1 mg/ml, p<0.02
# Description: One hundred synchronized L1 worms (pqe-1; Htn-Q150) (Faber P., et al, Proc Natl Acad Sci 99: 17131-6; Wood W., Cold Spring Harbor Laboratory, NY) were added to 5 wells (20 worms/well). Each well contained 50 μl food suspension (6.6 O.D.) pre-mixed with compound or DMSO in a 96-well plate. Worms were incubated for 2 d at 15° C., washed in S-media, immobilized with 5 mM sodium azide on a microscopic glass slide and GFP fluorescence was examined using an Axoplan2 fluorescence microscope (ex 485/em 535 nm). Live (GFP positive) Anterior Sensory Horn (ASH) neurons were counted in at least 50 worms (100 neurons). Data were subjected to a two-tailed Student t-test.
# Worm HD Model. A C. elegans model of HD was optimized for testing compounds. In this model, larval ASH neurons that express mutant htt in a poly Q enhancer-1 mutant background, die over 2-3 days after hatching (Faber P, et al, Proc Natl Acad Sci USA 2002, 99: 17131-6). Neuronal death was monitored by loss of GFP expression in ASH neurons. Since the effective concentration of compounds in worms can vary widely from those in cell culture, concentrations to test in worms were based on an assay (FIG. 19). The effective concentrations in worms for all compounds were determined and tested for rescue of neuronal cell death. […] Thus, the ST14A cell culture model can be used to identify compounds that are active in in vivo models of HD. […] Compounds in this series were active in both the worm and PC12 HD models (FIG. 18B-C). The revertin-1 series has certain features making it an attractive candidate for lead development including different analogues that are active, a low molecular weight (˜400) making it likely that it can cross the blood brain barrier; furthermore, it is synthetically tractable.
# [4] = test system: PC12 expressing Q103 exon 1 htt; assay: PC12 HD model, Alamar Blue viability; type: cell-based; conditions: for EC50: Rattus norvegicus, PC-12, unit inferred; for PC12 rescue: percent increase in viability in compound treated cells above DMSO treated: — = no activity in the assay (footnote n.a.)
# Description: For enhanced stability the repeat portion consists of alternating CAG/CAA repeats. […] Mutant (mut) htt was induced by the ecdysone receptor agonist, tebufenozide.
# For the PC12 assay, 7500 cells/well were plated in 384-well plates in 57 μl of PC12 medium with tebufenozide (1 μM). Compounds (3 μl) from daughter plates were added to the cells and incubated at 37° C. After 48 h, 20 μl of 40% Alamar Blue (Biosource, CA) in PC12 media was added per well and cells incubated for 12 h at 37° C. […] Fluorescence intensity was determined using a Packard Fusion plate reader with an excitation filter centered on 535 nm and an emission filter centered on 590 nm. Average percentage inhibition at each concentration was calculated.
# N548 mutant cells = assay: in vitro; conditions: for selectivity profile of cell death rescue in panel of htt expressing cell lines: N63, N548, FL htt cell lines, in words; for maximal fold induction / EC50: Rattus norvegicus; for maximal fold induction: 72 h, read-out: N548 Mut: Max, maximum rescue expressed as fold over DMSO treated N548 mutant cells
# Description: Embryonic rat striatal neurons were conditionally immortalized by stably transfecting a temperature-sensitive SV40 large T-antigen (T-ag) to generate the ST14A cell line. ST14A cells proliferate at the permissive temperature (33° C.), but stop dividing at 39° C., as a result of T-ag degradation. […] As htt protein context modulates polyQ toxicity, testing these different length htt proteins could provide insight into the basis for context dependence.
# ST14A Assay System: Calcein acetoxylmethyl ester (AM) (Molecular Probes, Eugene, Oreg.) is a non-fluorescent, membrane-permeable compound that is cleaved by intracellular esterases, which subsequently forms the anionic, fluorescent compound, calcein, that cannot permeate the cell membrane. […] A fluorescence viability assay, that is based on conversion of a non-fluorescent substrate (calcein AM) to a fluorescent product by nonspecific esterases in live cells, was employed to monitor cell death in wild type (wt) ST14A-Htt and mut ST14A-Htt cell lines. Cell death is indicated by a decrease in fluorescence. […] 3 μl of each compound was transferred from daughter plates to triplicate assay plates for a final assay concentration of 4 μg/ml in 0.1% DMSO (10 μM for NINDS compounds). Cells were incubated at 33° C. for 3 h to enhance attachment and then shifted to 39° C. (with 5% CO2). After 3 days (d), cells were washed 10 times with phosphate buffered saline (PBS) leaving 20 μl residual PBS per well, and 20 μl of 2 μg/ml calcein AM (Molecular probes) in PBS was added per well. […] The fluorescence intensity in each well was normalized to the median of each plate. The median normalized fluorescence of each triplicate assay wells was determined. A well with more than 50% increase in intensity above the median signal intensity was considered a “hit.”
# Assay Development: An assay was developed for detecting mutant htt-induced cell death in ST14A cells in a 384-well plate format. A calcein AM-based method was used to detect cell viability, and optimized the cell number and time course for this method. […] A cell number titration was performed to determine the cell density at which calcein fluorescence was not saturated and the coefficient of variation (CV) was low (FIG. 14A-B). A low CV is critical for a high-throughput assay as it decreases noise and enhances sensitivity. […] Next, the kinetics of the fluorescence signal were determined.
# Next, the serum concentrations that induce cell death in these cells were determined. Cells were seeded in decreasing serum (IFS) concentrations (5 to 0%), and cell viability was assayed after 3 d using the calcein AM assay (FIG. 14E).
# A Z′ value of greater than 0 is required for a usable assay, with a maximum value of 1.0 for an ideal assay. For the assay, calcein fluorescence was used on the day of seeding to represent 100% rescue. The difference in calcein fluorescence signal on the day of seeding and after different number of days under serum deprivation was determined and used to calculate the Z′ factor. […] About 47,000 compounds were assayed in a 384-well plate format in triplicate to enhance the reliability of the primary screen.
# [5] = test system: microtubules in N548 mutant cells; assay: β-tubulin indirect immunofluorescence; type: cell-based, rat; conditions: colchicine 400 nM, revertin-22 4 μg/ml, 8 h
# Description: Cells were grown on glass coverslips in 10% IFS-containing media, treated with compounds and fixed in acetone/methanol (1:1 vol/vol). β-tubulin was detected using a mouse monoclonal antibody (clone TUB2.1, Sigma-Aldrich) followed by a rhodamine-conjugated goat anti-mouse antibody (Jackson Laboratory; Bar Harbor, Me.). Cells were viewed under a fluorescent microscope (ex 530/em 595 nm).
# [6] = read-out: EC50 based on activity in N548 mutant cells
EC50 (N548 mutant cells; [6]),Compound,"p53, p21, MDM2 levels (p53)",selectivity profile of cell death rescue in panel of htt expressing cell lines (N548 mutant cells),maximal fold induction (N548 mutant cells),microtubule disruption [5],other results
,CC(C)(C)CC(C)(C)c1ccc(OCCOCC[N+](C)(C)Cc2ccccc2)cc1 [benzethonium chloride],"did not upregulate p53, p21, or caspase 3",,,,cell cycle effect in RKO-E6 cells (RKO-E6 cells [1]): did not induce cell cycle arrest
,COc1cccc2c1C(=O)c1c(O)c3c(c(O)c1C2=O)C[C@@](O)(C(=O)CO)C[C@@H]3O[C@H]1C[C@H](N)[C@H](O)[C@H](C)O1 [doxorubicin],caused p53 to accumulate,,,,"resistance of RKO-E6 cells compared to RKO cells (RKO-E6 cells [2]): two-fold to four-fold more resistant; inhibition at 0.5 µg/mL (RKO-E6 cells [2]; Homo sapiens, RKOE6, 0.5 μg/ml alone, 24 h, read-out: growth inhibition by drug alone): 20%"
4 µg/mL,CCCc1cc(OC(=O)c2ccccc2F)n(-c2cccc(F)c2)n1 [revertin-1a],,selectively rescued cell death in all mutant htt-expressing cell lines,2.5,,ASH neuronal cell survival [3]: enhance ASH neuronal cell survival; EC50 [4]: 50 µg/mL; PC12 rescue: percent increase in viability in compound treated cells above DMSO treated [4]: 21%
1 µg/mL,COc1cc2c(cc1OC)C(C)N(C(=O)NCc1ccccc1)CC2 (centres unmarked) [revertin-22],,shared the selectivity profile with MTIs,2.5,depolymerize microtubules,
2 µg/mL,CC1CN(C(C)c2nc3ccccc3c(=O)n2-c2ccc(F)cc2)CCC1C(=O)C1CC1 (centres unmarked) [revertin-23],,shared the selectivity profile with MTIs,2.5,disrupt microtubules,
,Colchicine [reference compound],,rescued cell death in three htt expressing cell lines,,depolymerize microtubules,"N548 Mut: Max, maximum rescue expressed as fold over DMSO treated N548 mutant cells (N548 mutant cells; 0.5% IFS, 39° C., 3 d): 2.5 fold; pEC50 (N548 mutant cells; [6]): 7.40"
,benzalkonium chloride,"did not upregulate p53, p21, or caspase 3",,,,"effect on doxorubicin's lethality in RKO-E6 cells (RKO-E6 cells [2]; co-treatment with 0.5 μg/ml doxorubicin, 24 h, in words): selectively increased doxorubicin's lethality; effect on camptothecin's lethality (RKO-E6 cells [2]; co-treatment with camptothecin, in words): did not synergize with camptothecin; induction of apoptosis (RKO-E6 cells [2]; in the absence of doxorubicin): did not induce apoptosis; cell cycle effect in RKO-E6 cells (RKO-E6 cells [1]): did not induce cell cycle arrest"

Compound,EC50 (N548 mutant cells; [6]),"p53, p21, MDM2 levels (p53)",selectivity profile of cell death rescue in panel of htt expressing cell lines (N548 mutant cells),maximal fold induction (N548 mutant cells),microtubule disruption [5],other results
COc1c2c(cc3c1C(CC(=O)/C=C/c1ccco1)[N+](C)(C)CC3)OCO2 (centres unmarked) [revertin-2],3 µg/mL,,protective in all three mutant htt versions,4,,ASH neuronal cell survival [3]: enhance ASH neuronal cell survival; ASH neuronal cell survival ([3]; listed as rev-2): rescued ASH neuronal cell death; EC50 [4]: 13 µg/mL; PC12 rescue: percent increase in viability in compound treated cells above DMSO treated [4]: 34%
